Assay [1] deals with NCI-87 cells. Format: cell-based, human. The settings on record: without altering total HER2 levels, FIG. 12.
Description: (§1) Multiple Drug Effect Analysis: ˜1 X10^4 cells were plated in 24-well plate and grown in appropriate growth media. Lapatinib, cMET inhibitor or both agents (combo) were added at 1 μM concentration for 4 hrs and lysed for subsequent pathway profiling.
(§2) Immuno-microarray slides were rinsed 2× with TB ST (50 mM Tris/150 mM NaCl/0.1% Tween-20, pH 7.2-7.4), blocked with 80 μL Whatman Blocking Buffer lhr at RT, then washed 2× with TBST. Serially diluted lysate controls in 80 μL dilution buffer (2% BSA/0.1% TritonX-100/TBS, pH 7.2-7.4) and samples were added to designated sub-arrays on slides, then incubated 1 hour at RT. Slides were washed 4× (3 min. each), and detector Abs were added in 80 μL of reaction buffer and incubated for 2 hours at RT. After washing slides with TB ST to remove unbound detector Abs, 80 μL of biotin-tyramide solution (5 μg/m1 in 50 mM glucose/PBS) prepared from 400 μg/mL in ethanol solution (Perkin-Elmer Life Science) was added and incubated 15 min in darkness. Glucose-oxidase (GO)/HRP-mediated tyramide signal amplification process was terminated by washing with TBST 4×, 3 min each. Local deposition of biotin-tyramide was detected by incubation with streptavidin (SA)-Alexa647 (Invitrogen) at 0.5 μg/mL in 2% BSA/0.1% Triton/TBS for 40 min. Upon completion of incubation, slides were washed 4× with TBST, dried and kept in darkness until imaged via microarray scanner. […]
The subject of assay [2] is MET-amplified SNU484 cells. Format: cell-based, human. The settings on record: FIG. 12.
Description: as §1, §2
In assay [3] the test system is unselected gastric cancer patients. The settings on record: monotherapy; Jhawer et al., 2008; cited from earlier work.

As to `CS(=O)(=O)CCNCc1ccc(-c2ccc3ncnc(Nc4ccc(OCc5cccc(F)c5)c(Cl)c4)c3c2)o1` [lapatinib], the HER2 activation result is reported as “abolished” in assay [1] and “unable to do so” in assay [2].

Take `COc1cc2c(Oc3ccc(NC(=O)C4(C(=O)Nc5ccc(F)cc5)CC4)cc3F)ccnc2cc1OCCCN1CCOCC1` [foretinib]: in assay [3], the objective response entry is “failed to demonstrate an objective response”.

Source of the values: patent publication US20170285044A1, “METHODS FOR PREDICTING AND IMPROVING THE SURVIVAL OF GASTRIC CANCER PATIENTS” (Pierian Holdings, Inc., priority 2011, published 2017).
